Laboratory results from patent publication US20260216112A1, “ACETYLCYSTEINE-STABILIZED GOLD NANOCLUSTERS FOR ACUTE KIDNEY INJURY, AND PREPARATION METHOD AND APPLICATION THEREOF” (priority 2021, published 2026).

Key:
[1] = ABTS free radical cation discoloration method; format: biochemical; conditions: concentration of […] (so in the source); absorbance at 734 nm; FIG. 6
Protocol: The test for eliminating ABTS (2,2′-azino-bis(3-ethylbenzothiazoline-6-sulfonic acid)) free radicals by Au NCs-NAC.
The free radicals eliminating ability of Au NCs-NAC was tested using the ABTS free radical cation discoloration method. ABTS (7 mM) was dissolved in water, and 2.45 mM potassium persulfate was added to react for 12 hours to produce ABTS free radical cations (⋅ABTS+). Then, the absorbance values of the pure ⋅ABTS+solution (AB) and the mixed solution of different concentrations (12.5-100 μg/mL) of Au NCs-NAC and ⋅ABTS+ were measured at 734 nm. The formula for calculating ABTS eliminating efficiency is [(AB AP)/AB]*100. All measurements were performed in triplicate.

TNF-α = assay: in vitro anti-inflammatory study, TNF-α ELISA; format: cell-based; conditions: LPS 400 ng/ml stimulation, RAW264.7 macrophage supernatant, FIG. 9
From the text: (§1) Embodiment 3: Au NCs-NAC cytotoxicity and protection of kidney cells by eliminating various reactive oxygen species/reactive nitrogen species, and the standard MTT method was used to evaluate the effect of Au NCs-NAC on the survival rate of 293T renal embryonic cells. Furthermore, ELISA (enzyme-linked immunosorbent assay) kits for TNF-α and IL-6 are adopted to evaluate the levels of inflammatory factors in the cells.
(§2) For in vitro anti-inflammatory studies, both macrophages and 293T renal embryonic cells were seeded into 96-well plates. Then, 293T renal embryonic cells were treated with 400 ng/ml lipopolysaccharide (LPS) for 1 h. Then, the supernatant of 293T renal embryonic cell culture was transferred to a 96-well plate to culture RAW264.7 macrophages overnight. Finally, the TNF-α/IL-6 ELISA kit was used to detect the concentrations of TNF-α and IL-6 in the RAW264.7 macrophage supernatant.

IL-6 = assay: in vitro anti-inflammatory study, IL-6 ELISA; format: cell-based; conditions: LPS 400 ng/ml stimulation, RAW264.7 macrophage supernatant, FIG. 10
From the text: as §1, §2

[2] = test system: glycerol-induced acute renal failure mice; assay: glycerol-induced acute renal failure mice, serum creatinine and blood urea nitrogen; format: in vivo; conditions: 4 mg/kg injected 2 hours after glycerol, serum at 24 hours, versus phosphate buffer
Protocol: All experimental operations were performed in accordance with the animal use and care system approved by the Clinical Center Animal Care and Use Committee. Female athymic mice (six weeks, 20-25 g) were injected with 8 mL/kg 50% glycerol solution intramuscularly into the hind legs to establish a mice model of acute renal failure. After 2 hours, the small molecule drug acetylcysteine or Au NCs-NAC was injected.
Mice were randomly divided into 5 groups: (1) healthy mice injected with phosphate buffer; (2) healthy mice injected with Au NCs-NAC; (3) glycerol-induced acute renal failure mice injected with phosphate buffer; (4) glycerol-induced acute renal failure mice injected with Au NCs-NAC; (5) glycerol-induced acute renal failure mice injected with acetylcysteine in the same dose of Au NCs-NAC. Healthy mice and mice with glycerol-induced acute renal failure were euthanized 24 hours later. The blood of the mice was centrifuged to obtain serum, and the creatinine and blood urea nitrogen contents were measured. The phosphate buffer used for injection was 100 μL, the injection dose of Au NCs-NAC was 4 mg/kg, and the injection dose of acetylcysteine was 4 mg/kg.

[3] = superoxide anion removal, SOD assay kit; format: biochemical; conditions: concentration of 100 μg/mL; FIG. 5
Protocol: The efficiency of Au NCs-NAC in removing superoxide anions at different concentrations ([…]) was determined using the SOD assay kit (Sigma-Aldrich, USA). The test was conducted according to the instructions provided by the manufacture.

[4] = hydroxyl radical antioxidant capacity (HORAC) kit; format: biochemical; conditions: concentration of 100 μg/mL; FIG. 4

CC(=O)N[C@@H](CS)C(=O)O [acetylcysteine]
⋅ABTS+ eliminated (ABTS eliminating efficiency) [1]: 68.9% | production of inflammatory factor TNF-α (TNF-α): not able to achieve the same | production of inflammatory factor IL-6 (IL-6): not able to achieve the same | serum blood urea nitrogen level ([2]; FIG. 11): cannot effectively reduce | serum creatinine level ([2]; FIG. 12): cannot effectively reduce | superoxide anions eliminated [3]: 6% | hydroxyl radicals eliminated [4]: 47.2%
